Assay: Particle size distribution (Psd comparison) of Tiacumicin B crystals
Format: physicochemical
Settings: in µm (unit assumed)
Description: 3000 g of pure Tiacumicin B were dissolved in about 40 L of CH3OH. 80 L of (C2H5)2O were added under stirring to the solution at the room temperature. The solution was then heated at 39° C. and the mixer speed was set at 20 rpm; 160 L of n-Pentane were added in about 30 minutes. The mixer speed was then set at 15 rpm and the solution was cooled at 5° C. in about 5 hours. The suspension was then filtered and product dried under vacuum. The crystal obtained has a not well defined crystal shape and a high amount of fine that make the product difficult to formulate. […] of pure Tiacumicin B were dissolved in 33 mL of CH3OH. 66 mL of (C2H5)2O were added under stirring to the solution at the room temperature. The solution was then heated at 39° C. and the mixer speed was set at 400 rpm; 132 mL of n-Pentane were added in about 30 minutes. The mixer speed was then set at 200 rpm and the solution was cooled at 5° C. in about 60 minutes. The suspension was heated at 30° C. and maintained at this temperature for about 30 minutes; then the suspension was cooled at 5° C. in about 60 minutes. The suspension was heated at 25° C. and maintained at this temperature for about 30 minutes; then the suspension was cooled at 5° C. in about 60 minutes. The suspension was heated at 15° C. and maintained at this temperature for about 30 minutes; then the suspension was cooled at 5° C. in about 60 minutes and maintained in this condition over night. The crystals obtained has a different more homogeneous and regular crystal habit respect to that obtained with the standard process and an improved psd (see FIGS. 3 and 4 and Table). 2000 g of pure Tiacumicin B were dissolved in 26 L of CH3OH. 52 L of (C2H5)2O were added under stirring to the solution at the room temperature. The solution was then heated at 39° C. and the mixer speed was set at 20 rpm; 130 L of n-Pentane were added in about 30 minutes. The mixer speed was then set at 8 rpm and the solution was cooled at 35° C. and maintained at this temperature for about 60 minutes. The suspension was cooled at 30° C. and maintained at this temperature for about 60 minutes. Then the suspension was cooled at 25° C. and maintained at this temperature for about 30 minutes. Then the suspension was cooled at 20° C. and maintained at this temperature for about 30 minutes. Then the suspension was cooled at 15° C. and maintained at this temperature for about 30 minutes. Then the suspension was cooled at 10° C. and maintained at this temperature for about 30 minutes. Then the suspension was cooled at 5° C. and maintained at this temperature for about 30 minutes. The suspension was heated at 30° C. and maintained at this temperature for about 30 minutes; then the suspension was cooled at 5° C. in about 60 minutes. The suspension was heated at 25° C. and maintained at this temperature for about 30 minutes; then the suspension was cooled at 5° C. in about 60 minutes. The suspension was heated at 15° C. and maintained at this temperature for about 30 minutes; then the suspension was cooled at 5° C. in about 60 minutes and maintained in this condition over night. The crystals obtained has a different more homogeneous and regular crystal habit respect to that obtained with the standard process and an improved psd (see FIGS. 3 and 4 and Table).

Q: What does the source list for `CCc1c(Cl)c(O)c(Cl)c(O)c1C(=O)O[C@H]1[C@H](O)[C@H](OC)[C@H](OC/C2=C\C=C\C[C@H](O)/C(C)=C/[C@H](CC)[C@@H](O[C@@H]3OC(C)(C)[C@@H](OC(=O)C(C)C)[C@H](O)[C@@H]3O)/C(C)=C/C(C)=C/C[C@@H]([C@@H](C)O)OC2=O)O[C@@H]1C` [Example 1, Tiacumicin B]?
A: D(0.1): 3.90; D(0.5): 11.36; D(0.9): 27.35

Q: Which “D(0.1)” value does the source give for `CCc1c(Cl)c(O)c(Cl)c(O)c1C(=O)O[C@H]1[C@H](O)[C@H](OC)[C@H](OC/C2=C\C=C\C[C@H](O)/C(C)=C/[C@H](CC)[C@@H](O[C@@H]3OC(C)(C)[C@@H](OC(=O)C(C)C)[C@H](O)[C@@H]3O)/C(C)=C/C(C)=C/C[C@@H]([C@@H](C)O)OC2=O)O[C@@H]1C` [Example 2, Tiacumicin B] here?
A: The value was 10.82.

Q: What about the “D(0.5)” value of the same compound?
A: The value was 35.94.

Q: What about the “D(0.9)” value of the same compound?
A: The value was 73.79.

Q: What does the source list for `CCc1c(Cl)c(O)c(Cl)c(O)c1C(=O)O[C@H]1[C@H](O)[C@H](OC)[C@H](OC/C2=C\C=C\C[C@H](O)/C(C)=C/[C@H](CC)[C@@H](O[C@@H]3OC(C)(C)[C@@H](OC(=O)C(C)C)[C@H](O)[C@@H]3O)/C(C)=C/C(C)=C/C[C@@H]([C@@H](C)O)OC2=O)O[C@@H]1C` [Example 3, Tiacumicin B]?
A: D(0.1): 7.04; D(0.5): 23.98; D(0.9): 55.27

From patent publication US9862740B2, “Process for preparing novel forms of tiacumicin B” (Olon S.P.A., priority 2014, dated 2018)
